Test results taken from US20210380548A1, “Fused [1,2,4]Thiadiazine Derivatives Which Act as KAT Inhibitors of the MYST Family” (CTxT Pty Limited, priority 2017, published 2021).

Columns and labels:
MOZ-KAT6A [1] = target: T1, MOZ-KAT6A (Homo sapiens, UniProt Q92794, A567V); assay: Acetyltransferase biochemical assay (AlphaScreen), KAT6A; settings: Table 2 (MOZ-KAT6A); 10 μM Acetyl coenzyme A, histone H3.1, 5 nM enzyme
T1 construct: encoding amino acid residues 507 to 778 (Uniprot Q92794-1) of human KAT6A; made in house; host or cells: E. coli BL21 DE3
T1 sequence (Q92794 507-778 A567V limits assumed): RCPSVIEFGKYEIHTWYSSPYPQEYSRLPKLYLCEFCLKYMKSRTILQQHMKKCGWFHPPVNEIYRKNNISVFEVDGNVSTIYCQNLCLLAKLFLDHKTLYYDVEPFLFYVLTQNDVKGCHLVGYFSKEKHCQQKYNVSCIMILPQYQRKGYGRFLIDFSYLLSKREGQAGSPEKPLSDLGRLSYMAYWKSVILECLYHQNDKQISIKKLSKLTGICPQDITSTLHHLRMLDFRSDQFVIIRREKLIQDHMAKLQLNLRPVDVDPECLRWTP

MOF-KAT8 [2] = target: T2, MOF-KAT8 (Homo sapiens, UniProt Q9H7Z6); assay: Acetyltransferase biochemical assay (AlphaScreen), KAT8; settings: Table 4 (MOF-KAT8); 0.4 μM Acetyl coenzyme A, histone H4, 20 nM enzyme
T2 sequence (Q9H7Z6 177-447): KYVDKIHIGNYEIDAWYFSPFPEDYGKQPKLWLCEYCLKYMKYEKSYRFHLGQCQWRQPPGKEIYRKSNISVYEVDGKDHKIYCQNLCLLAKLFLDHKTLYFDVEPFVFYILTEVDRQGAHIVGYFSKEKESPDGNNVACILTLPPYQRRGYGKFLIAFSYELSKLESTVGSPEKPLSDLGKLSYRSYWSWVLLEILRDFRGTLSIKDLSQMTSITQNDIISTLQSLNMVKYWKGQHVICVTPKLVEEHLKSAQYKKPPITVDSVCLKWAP

HBO-KAT7 [3] = target: T3, HBO-KAT7 (Homo sapiens, UniProt O95251); assay: Acetyltransferase biochemical assay (AlphaScreen), KAT7; settings: Table 3 (HBO-KAT7); 0.4 μM Acetyl coenzyme A, histone H3.1, 40 nM enzyme
T3 construct: encoding amino acid residues 325 to 611 (Uniprot 095251-1) of human KAT7; made in house; host or cells: E. coli BL21 DE3 RIL
T3 sequence (O95251 with tags, fused parts or gaps): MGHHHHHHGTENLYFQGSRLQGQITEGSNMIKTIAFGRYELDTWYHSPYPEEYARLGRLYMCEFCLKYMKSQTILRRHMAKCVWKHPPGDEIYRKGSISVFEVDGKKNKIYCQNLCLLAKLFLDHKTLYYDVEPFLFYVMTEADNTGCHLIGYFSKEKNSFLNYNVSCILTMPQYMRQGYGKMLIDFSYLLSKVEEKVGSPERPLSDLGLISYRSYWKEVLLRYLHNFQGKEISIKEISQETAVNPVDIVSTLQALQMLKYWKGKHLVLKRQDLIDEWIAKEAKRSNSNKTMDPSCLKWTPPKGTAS

TIP60-KAT5 [4] = target: T4, TIP60-KAT5 (Homo sapiens, UniProt Q92993); assay: Acetyltransferase biochemical assay (AlphaScreen), KAT5; settings: Table 1 (TIP60-KAT5); 0.4 μM Acetyl coenzyme A, histone H4, 10 nM enzyme
T4 construct: encoding amino acid residues 2 to 461 (Uniprot Q92993-2) of human KAT5 isoform; made in house; host or cells: E. coli BL21 DE3
T4 sequence (Q92993 2-461 isoform Q92993-2): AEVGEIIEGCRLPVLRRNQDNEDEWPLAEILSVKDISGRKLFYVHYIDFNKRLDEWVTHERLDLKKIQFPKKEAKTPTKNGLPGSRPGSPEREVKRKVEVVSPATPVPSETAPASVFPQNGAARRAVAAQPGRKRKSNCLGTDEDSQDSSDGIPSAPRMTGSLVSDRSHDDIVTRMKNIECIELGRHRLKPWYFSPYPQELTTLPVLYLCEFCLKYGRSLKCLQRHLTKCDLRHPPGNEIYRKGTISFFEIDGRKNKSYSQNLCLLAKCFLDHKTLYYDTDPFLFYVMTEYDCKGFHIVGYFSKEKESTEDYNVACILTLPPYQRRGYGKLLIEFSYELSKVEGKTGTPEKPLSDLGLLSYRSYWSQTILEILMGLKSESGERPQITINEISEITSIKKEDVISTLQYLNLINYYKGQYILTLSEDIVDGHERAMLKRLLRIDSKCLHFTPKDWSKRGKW

[5] = tested on: histone H3K14 acetylation (HBO1 mediated) in U2OS cells; assay: Histone H3 Lysine 14 Acetylation Biomarker Assay (96 well, U2OS); assay type: cell-based; settings: Table 6, H3K14ac, 24 hours incubation, serum free medium
Method: Compounds may be tested for their ability to inhibit acetylation of the histone H3K14 marker (which is HBO1 mediated) in the following assay:
The cell line U2OS was seeded at a density of 12,000 cells per well in 96 well optical quality tissue culture plates in RPMI medium and 10% foetal bovine serum, and allowed to adhere for 24 hours under standard culture conditions (37 degree Celsius, 5% CO2). At the end of this period the cells were washed with serum free medium. Compound dilutions prepared in DMSO were added to the serum free medium, with negative control wells reserved for treatment with DMSO only and positive controls receiving a potent inhibitor compound (e.g. Example 36 in WO2016/198507) at 10 μM concentration. After incubation for 24 hours, the cells were fixed with 3.7% formaldehyde in PBS for 20 minutes at room temperature, washed with phosphate buffer saline containing 0.1% Tween 20 and blocked with Odyssey blocking buffer (LI-COR, Lincoln, Nebr.) containing 0.1% TritonX100. Anti-H3K14ac specific antibody (Cell Signalling Technologies) in Odyssey blocking buffer containing 0.1% Tween 20 was added and incubated for 14 hours at 4 degree Celsius. After washing, a secondary antibody labelled with Alexa647 dye (LifeTechnologies) and Hoechst 33342 (1 μg/mL, SigmaAldrich) were added for 1 hour incubation. Plates were washed and read on a PerkinElmer Phenix high content imaging platform. Using a Columbus image analysis pipeline, individual nuclei were located by Hoechst 33342 stain and the acetylation level was calculated from the Alexa647-related intensity in the same area. The resulting mean intensity per cell was directly converted to percent inhibition relative to controls on the same plate and the data fitted against a four-parameter logistic model to determine the 50% inhibitory concentration (IC50).

TIP60-KAT5 [6] = target: T4, TIP60-KAT5; assay: Revised Acetyltransferase Biochemical Assay, KAT5; settings: 10 nM KAT5, 1 μM AcCoA, 100 nM histone H4, 90 min
HBO-KAT7 [7] = target: T3, HBO-KAT7; assay: Revised Acetyltransferase Biochemical Assay, KAT7; settings: Table 9 (HBO-KAT7), 1 μM Acetyl coenzyme A
MOZ-KAT6A [8] = target: T1, MOZ-KAT6A; assay: Revised Acetyltransferase Biochemical Assay, KAT6A; settings: Table 8 (MOZ-KAT6A), 1 μM Acetyl coenzyme A
MOF-KAT8 [9] = target: T2, MOF-KAT8; assay: Revised Acetyltransferase Biochemical Assay, KAT8
[10] = tested on: histone H2A.Z Lysine 7 acetylation (TIP60 mediated) in U2OS cells; assay: H2A.Z Lysine 7 Acetylation Biomarker Assay (384-well, U2OS); assay type: cell-based; settings: Homo sapiens, serum free medium, 24 hours incubation
Outline: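 U2OS cells (3,000/well) were treated with compound for 24 h after a serum-free wash, then fixed. They were stained with anti-H2A.ZK7ac, an AlexaFluor 488 secondary and Hoechst. High-content imaging gave mean nuclear intensity per cell, converted to percent inhibition against on-plate controls, and IC50 came from a four-parameter logistic fit.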

[11] = tested on: histone H3 Lysine 14 acetylation (HBO1 mediated) in U2OS cells; assay: Histone H3 Lysine 14 Acetylation Biomarker Assay (384-well, U2OS); assay type: cell-based; settings: Homo sapiens, serum free medium, 24 hours incubation
Outline: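 U2OS cells in serum-free medium treated with compound 24 h; DMSO and 10 μM reference inhibitor as 0% and 100% controls. Fixed cells immunostained for H3K14ac (AlexaFluor 488) with Hoechst nuclear mask, imaged by high-content analysis; per-cell intensity converted to % inhibition, IC50 by four-parameter logistic fit.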

QKF-KAT6B = target: T5, QKF-KAT6B (Homo sapiens, UniProt Q8WYB5); assay: Revised Acetyltransferase Biochemical Assay, KAT6B; settings: 8 nM KAT6B, 1 μM AcCoA, 100 nM histone H3.1, 90 min
T5 construct: purchased SignalChem K315-381BG
T5 sequence (Q8WYB5 whole entry): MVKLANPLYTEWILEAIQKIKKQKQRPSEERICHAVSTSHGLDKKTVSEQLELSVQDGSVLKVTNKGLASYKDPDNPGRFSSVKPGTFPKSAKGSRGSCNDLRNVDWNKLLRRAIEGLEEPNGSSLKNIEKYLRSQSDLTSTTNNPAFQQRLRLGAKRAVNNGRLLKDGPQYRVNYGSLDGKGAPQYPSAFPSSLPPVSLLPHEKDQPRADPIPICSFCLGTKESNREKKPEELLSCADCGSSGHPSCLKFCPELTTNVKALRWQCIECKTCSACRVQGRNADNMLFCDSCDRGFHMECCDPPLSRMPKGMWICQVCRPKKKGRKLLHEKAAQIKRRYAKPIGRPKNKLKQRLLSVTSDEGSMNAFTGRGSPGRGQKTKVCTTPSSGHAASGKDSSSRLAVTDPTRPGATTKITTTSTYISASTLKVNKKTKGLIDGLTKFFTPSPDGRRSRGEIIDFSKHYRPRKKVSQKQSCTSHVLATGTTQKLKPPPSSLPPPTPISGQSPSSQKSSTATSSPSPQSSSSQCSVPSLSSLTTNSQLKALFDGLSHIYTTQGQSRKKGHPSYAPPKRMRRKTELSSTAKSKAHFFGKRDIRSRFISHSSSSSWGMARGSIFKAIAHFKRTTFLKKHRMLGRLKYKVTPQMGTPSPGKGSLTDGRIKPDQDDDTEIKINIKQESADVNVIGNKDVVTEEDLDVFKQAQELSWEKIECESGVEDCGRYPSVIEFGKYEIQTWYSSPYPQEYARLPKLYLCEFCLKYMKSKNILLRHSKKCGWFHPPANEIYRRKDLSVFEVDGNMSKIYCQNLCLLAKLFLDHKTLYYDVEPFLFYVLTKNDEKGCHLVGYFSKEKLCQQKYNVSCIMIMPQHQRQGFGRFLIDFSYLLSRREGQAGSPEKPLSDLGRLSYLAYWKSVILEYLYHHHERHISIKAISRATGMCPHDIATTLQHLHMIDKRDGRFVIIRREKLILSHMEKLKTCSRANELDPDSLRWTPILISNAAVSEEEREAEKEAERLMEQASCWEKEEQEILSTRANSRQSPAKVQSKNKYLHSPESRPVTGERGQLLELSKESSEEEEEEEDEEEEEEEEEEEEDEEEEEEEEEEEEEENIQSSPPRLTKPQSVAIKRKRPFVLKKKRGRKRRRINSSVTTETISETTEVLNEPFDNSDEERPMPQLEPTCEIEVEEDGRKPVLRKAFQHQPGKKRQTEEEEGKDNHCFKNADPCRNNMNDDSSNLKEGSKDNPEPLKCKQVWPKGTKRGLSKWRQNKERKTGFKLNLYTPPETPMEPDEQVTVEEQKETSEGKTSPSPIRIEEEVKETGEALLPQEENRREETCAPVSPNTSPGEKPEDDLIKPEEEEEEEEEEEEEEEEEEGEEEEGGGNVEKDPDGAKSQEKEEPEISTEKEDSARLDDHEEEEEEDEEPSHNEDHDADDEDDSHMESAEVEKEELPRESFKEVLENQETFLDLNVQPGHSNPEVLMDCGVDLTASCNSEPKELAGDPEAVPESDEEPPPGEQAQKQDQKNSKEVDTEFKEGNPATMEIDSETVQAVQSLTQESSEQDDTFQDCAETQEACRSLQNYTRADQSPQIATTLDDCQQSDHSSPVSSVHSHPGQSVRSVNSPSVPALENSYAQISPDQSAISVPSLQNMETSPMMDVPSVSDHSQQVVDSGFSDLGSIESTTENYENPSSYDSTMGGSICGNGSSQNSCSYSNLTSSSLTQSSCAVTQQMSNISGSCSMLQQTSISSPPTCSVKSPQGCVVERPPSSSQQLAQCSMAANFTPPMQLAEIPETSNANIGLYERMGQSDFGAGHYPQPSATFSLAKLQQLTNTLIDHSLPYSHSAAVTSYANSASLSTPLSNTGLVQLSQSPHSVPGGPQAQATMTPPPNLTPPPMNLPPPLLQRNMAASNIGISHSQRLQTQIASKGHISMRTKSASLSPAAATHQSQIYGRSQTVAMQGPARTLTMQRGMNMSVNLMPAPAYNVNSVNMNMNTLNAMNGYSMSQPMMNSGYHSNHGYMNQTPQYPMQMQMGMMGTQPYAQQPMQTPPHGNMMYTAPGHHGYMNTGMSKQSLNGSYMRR
Text: KAT6B was obtained from SignalChem, catalog ID: K315-381BG

[12] = tested on: histone H3K23 acetylation (KATE mediated) in U2OS cells; assay: Histone H3 Lysine 23 Acetylation Biomarker Assay (U2OS); assay type: cell-based; settings: Homo sapiens, 96 well, 24 hours incubation
Outline: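 U2OS cells were treated with compound for 24 h, then fixed and immunostained for H3K23ac with Hoechst nuclear counterstain. Per-nucleus Alexa647 intensity was quantified by high-content imaging and converted to % inhibition against DMSO and 10 μM reference-inhibitor controls. IC50 was derived from a four-parameter logistic fit.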

Row | SMILES | IC50 (MOZ-KAT6A [1]) [nM] | IC50 (MOF-KAT8 [2]) [nM] | IC50 (HBO-KAT7 [3]) [nM] | IC50 (TIP60-KAT5 [4]) [nM] | IC50 [5] [nM] | IC50 ([5]; Homo sapiens, 24 h) [nM] | IC50 (TIP60-KAT5 [6]) [nM] | IC50 (HBO-KAT7 [7]) [nM] | IC50 (MOZ-KAT6A [8]) [nM] | IC50 (MOF-KAT8 [9]) [nM] | IC50 [10] [nM] | IC50 [11] [nM] | IC50 (QKF-KAT6B) [nM] | IC50 [12] [nM]
1 | O=C(NCC(c1ccccc1)c1ncco1)C1=Nc2ccccc2S(=O)(=O)N1 (single isomer, unassigned) [Example 136] | 8030 | > 125000 | 633 | 27600 | 7890 | – | – | – | – | – | – | – | – | –
2 | C#Cc1ccc2c(c1)S(=O)(=O)NC(C(=O)NCC(c1ccccc1)c1ccccc1)=N2 [Example 38, N-(2,2-diphenylethyl)-7-ethynyl-2H-benzo[e][1,2,4]thiadiazine-3-carboxamide 1,1-dioxide] | 532 | – | 154 | 1960 | – | 1500 | – | – | – | – | – | – | – | –
3 | O=C(NCC(c1ccc(F)cc1)c1ccccn1)C1=Nc2ccc(Br)cc2S(=O)(=O)N1 (stereo not drawn) [Example 39, 7-bromo-N-(2-(4-fluorophenyl)-2-(pyridin-2-yl)ethyl)-2H-benzo[e][1,2,4]thiadiazine-3-carboxamide 1,1-dioxide] | – | – | 192 | 5880 | – | 2490 | 3060 | 299 | 32 | – | – | – | – | –
4 | Cc1noc(C(CNC(=O)C2=Nc3ccc(I)cc3S(=O)(=O)N2)c2ccccc2)n1 (stereo not drawn) [Example 56] | 80.9 | – | 219 | 269 | – | 650 | 61 | 63 | 10 | 1300 | – | – | – | –
5 | O=C(NCC(c1cccc(Cl)c1)c1ncco1)C1=Nc2ccc(I)cc2S(=O)(=O)N1 (stereo not drawn) [Example 163] | – | 9780 | – | – | – | – | 221 | 115 | 17 | 14700 | 1520 | 892 | 117 | 453
6 | O=C(NCC(c1ccccc1)c1nccs1)C1=Nc2ccc(I)cc2S(=O)(=O)N1 (stereo not drawn) [Example 167] | – | 6480 | – | – | – | – | 56 | 62 | 4 | 8400 | 516 | 349 | 27 | 57
7 | O=C(NCC(c1ccccc1)c1nncs1)C1=Nc2ccc(I)cc2S(=O)(=O)N1 (stereo not drawn) [Example 168] | – | 3390 | – | – | – | – | 458 | 621 | 8 | 26500 | 8850 | 6440 | 37 | 525
8 | O=C(NCCc1ccccc1-c1n[nH]c(=O)o1)C1=Nc2ccc(I)cc2S(=O)(=O)N1 [Example 172] | – | 5130 | – | – | – | – | 25 | 41 | 5 | 6100 | 2090 | 2870 | 281 | > 10000
9 | COCCC(CNC(=O)C1=Nc2ccc(I)cc2S(=O)(=O)N1)c1ccccc1 (stereo not drawn) [Example 220, 7-Iodo-N-(4-methoxy-2-phenylbutyl)-2H-benzo[e][1,2,4]thiadiazine-3-carboxamide 1,1-dioxide] | – | – | – | – | – | – | 1430 | 214 | 20 | 26800 | 7810 | 917 | 134 | 540

Other lines, results leading:

Row | IC50 (MOZ-KAT6A [1]) [nM] | IC50 (MOF-KAT8 [2]) [nM] | IC50 (HBO-KAT7 [3]) [nM] | IC50 (TIP60-KAT5 [4]) [nM] | IC50 [5] [nM] | IC50 ([5]; Homo sapiens, 24 h) [nM] | IC50 (TIP60-KAT5 [6]) [nM] | IC50 (HBO-KAT7 [7]) [nM] | IC50 (MOZ-KAT6A [8]) [nM] | IC50 (MOF-KAT8 [9]) [nM] | IC50 [10] [nM] | IC50 [11] [nM] | IC50 (QKF-KAT6B) [nM] | IC50 [12] [nM] | SMILES
10 | – | 10400 | – | – | – | – | 29 | 28 | 5 | 9660 | 1100 | 219 | 88 | 112 | O=C(NCC(c1ncco1)c1ccccc1OC(F)F)C1=Nc2ccc(I)cc2S(=O)(=O)N1 (stereo not drawn) [Example 179]
11 | – | 104000 | – | – | – | – | 123 | 320 | 32 | 31200 | > 40000 | 35300 | 77 | > 10000 | O=C(NCC(c1ccccc1)c1nnc(CC(F)(F)F)o1)C1=Nc2ccc(I)cc2S(=O)(=O)N1 (stereo not drawn) [Example 181]
12 | – | 50000 | – | – | – | – | 284 | 237 | 6 | 24500 | 8100 | 488 | 59 | 84 | O=C(NCC(c1ccccc1)c1ncco1)C1=Nc2ccc(Cl)cc2S(=O)(=O)N1 (stereo not drawn) [Example 182]
13 | – | 103000 | – | – | – | – | 3750 | 1670 | 427 | 115000 | > 40000 | 2260 | 3310 | > 10000 | CN(CC(c1ccccc1)c1ncco1)C(=O)C1=Nc2ccc(I)cc2S(=O)(=O)N1 (stereo not drawn) [Example 203]
14 | – | 3540 | – | – | – | – | 193 | 111 | 2 | 15200 | 29500 | 4940 | 22 | 116 | O=C(NCC(c1ccccc1)c1ncco1)C1=Nc2ccc(-c3c[nH]nn3)cc2S(=O)(=O)N1 (stereo not drawn) [Example 213, N-(2-(Oxazol-2-yl)-2-phenylethyl)-7-(1H-1,2,3-triazol-4-yl)-2H-benzo[e][1,2,4]thiadiazine-3-carboxamide 1,1-dioxide]
15 | – | 8740 | – | – | – | – | 25 | 20 | 4 | 5720 | 4440 | 221 | 65 | 953 | O=C(NCC(c1cccc(O)c1)c1ncco1)C1=Nc2ccc(I)cc2S(=O)(=O)N1 (stereo not drawn) [Example 215, N-(2-(3-Hydroxyphenyl)-2-(oxazol-2-yl)ethyl)-7-iodo-2H-benzo[e][1,2,4]thiadiazine-3-carboxamide 1,1-dioxide]
16 | – | – | – | – | – | – | 306 | 143 | 100 | 6530 | 4520 | 3880 | 3240 | > 10000 | O=C(NCC(F)(F)c1ccccc1OC(F)F)C1=Nc2ccc(I)cc2S(=O)(=O)N1 [Example 231, N-(2-(2-(difluoromethoxy)phenyl)-2,2-difluoroethyl)-7-iodo-2H-benzo[e][1,2,4]thiadiazine-3-carboxamide 1,1-dioxide]
